Values joined by “and” are separate entries in the source; they are usually repeats but may differ in a detail not shown here. Identical values can stand only once. Like-named read-outs stand apart in the source and are kept apart here. Marks after values point to notes of the source that are not given here. Values belong to the molecule of their own block, whether it stands above or below them.
Key:
[1] = Thermodynamic partition coefficient medium-to-air; assay type: physicochemical; details: microsomal incubations, 37°C (ET n = 5, EO n = 3)
[2] = molecular target: T1, CYP2E1 (Mus musculus, UniProt Q05421); assay: EO formation in ET-exposed mouse liver microsomes; assay type: in vitro ADME, B6C3F1 mice
[3] = system: hepatic CYP; details: rats, 600 ppm ET, cited from earlier work
[4] = rat, gas uptake, cited from earlier work
[5] = molecular target: CYP2E1 (Homo sapiens, UniProt P05181); assay: EO formation in ET-exposed human liver microsomes; assay type: in vitro ADME
[6] = in vitro and in vivo in rodents; ref Victorin and Ståhlberg, 1988; Walker et al., 2000; cited from earlier work
[7] = molecular target: T1, CYP2E1; assay: EO formation in ET-exposed liver microsomes of wild-type mice; assay type: in vitro ADME, 129S1/SvImJ mice (wild-type mice)
[8] = system: CYP; assay: EO formation in ET-exposed rat lung microsomes; assay type: in vitro ADME, Fischer 344 rats
[9] = rats; ref Hamm et al., 1984; cited from earlier work
[10] = mouse, gas uptake; ref Artati et al. (2009); cited from earlier work
[11] = system: CYP; assay: Metabolic ET elimination in mouse liver microsomes; assay type: in vitro ADME, B6C3F1 mice; details: 10 mg protein/ml, ET 170 ppm in vessel atmosphere
[12] = value used in the physiological toxicokinetic model; ref Csanády et al. (2000); cited from earlier work
[13] = molecular target: CYP2E1 (Rattus norvegicus, UniProt P05182); assay: EO formation in ET-exposed rat liver microsomes; assay type: in vitro ADME, Fischer 344 rats
[14] = system: CYP; assay: EO formation in ET-exposed mouse lung microsomes; assay type: in vitro ADME, B6C3F1 mice
[15] = system: CYP; assay: EO formation in ET-exposed liver microsomes of CYP2E1 knockout mice; assay type: in vitro ADME, 129/Sv-Cyp2e1tm1Gonz/J mice (CYP2E1 knockout mice); details: pooled liver microsomes of 50 CYP2E1 knockout mice
[16] = system: epoxide hydrolase (EH); details: mouse liver microsomes; about the same obtained here; ref Faller et al., 2001; cited from earlier work
[17] = GSH 15 mmol/l; ref Faller et al. (2001); cited from earlier work
[18] = 37°C, pH 7, estimated; ref Faller et al., 2001; cited from earlier work
[19] = system: epoxide hydrolase (EH); details: rat liver microsomes; about the same obtained here; ref Faller et al., 2001; cited from earlier work
[20] = determined using a synthetic iron porphyrin; ref Collman et al., 1986; cited from earlier work

CYP2E1 (Rattus norvegicus, UniProt P05182), sequence (P05182 whole entry): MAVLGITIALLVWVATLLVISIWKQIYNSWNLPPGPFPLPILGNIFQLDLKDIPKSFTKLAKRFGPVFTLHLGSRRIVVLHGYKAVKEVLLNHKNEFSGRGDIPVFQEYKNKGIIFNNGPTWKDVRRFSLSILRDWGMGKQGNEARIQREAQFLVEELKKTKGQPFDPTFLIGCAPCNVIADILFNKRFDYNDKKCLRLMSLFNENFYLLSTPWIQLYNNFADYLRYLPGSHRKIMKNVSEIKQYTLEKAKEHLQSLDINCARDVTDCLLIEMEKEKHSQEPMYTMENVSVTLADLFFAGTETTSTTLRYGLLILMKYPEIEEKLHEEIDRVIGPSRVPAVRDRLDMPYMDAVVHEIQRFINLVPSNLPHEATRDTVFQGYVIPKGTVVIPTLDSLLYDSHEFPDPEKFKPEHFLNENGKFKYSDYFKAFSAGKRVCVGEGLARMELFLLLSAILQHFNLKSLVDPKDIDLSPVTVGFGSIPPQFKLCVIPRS
CYP2E1 (Homo sapiens, UniProt P05181), sequence (P05181 whole entry): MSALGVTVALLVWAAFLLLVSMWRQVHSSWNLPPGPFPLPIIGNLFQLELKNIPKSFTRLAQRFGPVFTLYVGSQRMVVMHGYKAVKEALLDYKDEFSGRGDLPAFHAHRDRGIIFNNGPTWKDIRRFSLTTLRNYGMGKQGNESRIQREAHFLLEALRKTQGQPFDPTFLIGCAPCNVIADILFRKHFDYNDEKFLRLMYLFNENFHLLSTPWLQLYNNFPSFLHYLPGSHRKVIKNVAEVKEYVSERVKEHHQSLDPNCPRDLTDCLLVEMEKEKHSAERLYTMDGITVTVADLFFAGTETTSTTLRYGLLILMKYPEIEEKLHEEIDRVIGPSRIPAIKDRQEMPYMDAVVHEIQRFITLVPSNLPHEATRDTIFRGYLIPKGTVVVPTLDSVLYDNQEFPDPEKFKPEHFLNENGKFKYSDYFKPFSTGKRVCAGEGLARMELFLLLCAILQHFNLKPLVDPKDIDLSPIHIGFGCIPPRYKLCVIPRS
T1 sequence (Q05421 whole entry): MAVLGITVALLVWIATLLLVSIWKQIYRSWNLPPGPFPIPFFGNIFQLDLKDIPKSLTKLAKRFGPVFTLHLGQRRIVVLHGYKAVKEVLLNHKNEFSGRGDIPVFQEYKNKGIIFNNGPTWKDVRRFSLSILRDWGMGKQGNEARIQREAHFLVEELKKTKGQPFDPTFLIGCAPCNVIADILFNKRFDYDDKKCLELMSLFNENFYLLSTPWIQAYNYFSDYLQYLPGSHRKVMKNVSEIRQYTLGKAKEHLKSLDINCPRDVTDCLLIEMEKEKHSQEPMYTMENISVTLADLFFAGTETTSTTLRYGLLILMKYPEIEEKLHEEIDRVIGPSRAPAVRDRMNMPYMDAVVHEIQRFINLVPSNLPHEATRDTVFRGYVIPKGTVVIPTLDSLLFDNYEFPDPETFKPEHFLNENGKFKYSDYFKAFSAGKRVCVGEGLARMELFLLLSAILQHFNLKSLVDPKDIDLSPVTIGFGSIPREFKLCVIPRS

Keq (thermodynamic partition coefficient medium-to-air) [1]: 0.2 ± 0.06 and 0.2 | time in which hepatic CYP2E1 decreases to about one third of the initial status ([2]; mice, very high ET concentrations, expected from k4): 18 min | Km, predicted from in vitro ([2]; mouse, Km in suspension divided by Kst 0.55): 400 ppm in air | k3/k4 (partition ratio) ([2]; pooled mouse liver microsomes, mean ± SE): 100 ± 9 | k3 (catalytic rate constant of EO formation) ([2]; pooled mouse liver microsomes, VmaxEO divided by CYP2E1 content, mean ± SE): 5.9 ± 0.6 min⁻¹ | k3/k4 (partition ratio) ([5]; human liver microsomes, mean ± SE): 39 ± 6 | Km, predicted from in vitro ([5]; human, Km in suspension divided by Kst 0.33): 963 ppm in air | time in which hepatic CYP2E1 decreases to about one third of the initial status ([5]; humans, very high ET concentrations, expected from k4): 11 min | VmaxEO (maximum EO formation rate) ([5]; liver microsomes from one individual, mean ± SE): 0.253 ± 0.0002 nmol/min/mg protein | k3 (catalytic rate constant of EO formation) ([5]; pooled human liver microsomes, VmaxEO divided by CYP2E1 content, mean ± SE): 3.2 ± 0.2 min⁻¹ | VmaxEO in wild-type mice relative to CYP2E1 knockout mice ([7]; liver microsomes): about 15 times higher | ratio of VmaxEO/Km in wild-type mice to VmaxEO/Km in CYP2E1 knockout mice ([7]; liver microsomes): 340 | VmaxEO (maximum rate of EO formation) ([7]; pooled liver microsomes of 50 wild-type mice): 1.1 nmol/min/mg protein | VmaxEO (maximum EO formation rate) ([8]; pooled rat lung microsomes, mean of 18,600 and 57,800 ppm ET): 0.055 nmol/min/mg protein | initial rate of metabolic ET elimination [11]: 0.069 nmol/min/mg protein | k3/k4 (partition ratio) ([13]; pooled rat liver microsomes, mean ± SE): 169 ± 15 | k3 (catalytic rate constant of EO formation) ([13]; pooled rat liver microsomes, VmaxEO divided by CYP2E1 content, mean ± SE): 11.2 ± 1.5 min⁻¹ | Km, predicted from in vitro ([13]; rat, Km in suspension divided by Kst 0.50): 1516 ppm in air | VmaxEO (maximum EO formation rate) ([14]; pooled mouse lung microsomes, mean of 16,500 and 75,400 ppm ET): 0.073 nmol/min/mg protein | VmaxEO (maximum rate of EO formation) [15]: 0.074 nmol/min/mg protein
SMILES: C=C [ET, ethylene]
VmaxEO (maximum EO formation rate) ([2]; liver microsomes pooled from 50 mice, 37°C, mean ± SE): 0.567 nmol/min/mg protein and 0.567 ± 0.038 nmol/min/mg protein | k4 (suicide inactivation rate constant) ([2]; pooled mouse liver microsomes, six ET incubations, mean ± SE): 0.060 ± 0.005 min⁻¹ | hepatic 4-nitrophenol hydroxylase activity (predominantly CYP2E1) remaining ([3]; after 4 h, ref Fennell et al., 2004): 50% | hepatic CYP remaining after inactivation ([3]; after 360 min of exposure, ref Maples and Dahl, 1993): 68% | Km, determined in vivo ([4]; ref Andersen et al. (1980)): 218 ^f ppm in air | VmaxET, determined in vivo ([4]; ref Andersen et al. (1980)): 8.6 ^f μmol/h/kg | Km, determined in vivo ([4]; ref Bolt et al. (1984)): 204 ^e ppm in air | VmaxET, determined in vivo ([4]; ref Bolt et al. (1984)): 8.5 ^e μmol/h/kg | k4 (suicide inactivation rate constant) ([5]; human liver microsomes, nine ET incubations, mean ± SE): 0.098 ± 0.013 min⁻¹ | VmaxEO (maximum EO formation rate) ([5]; liver microsomes pooled from 25 humans, 37°C, mean ± SE): 0.219 nmol/min/mg protein and 0.219 ± 0.005 nmol/min/mg protein | mutagenicity [6]: negative | k4 (suicide inactivation rate constant) ([8]; lung microsomes pooled from 50 rats, two incubations): 0.573 min⁻¹ and 0.392 min⁻¹ | long-term carcinogenicity study [9]: negative | Km, determined in vivo [10]: 105 ^d ppm in air | VmaxET, determined in vivo [10]: 15 ^d μmol/h/kg | apparent Michaelis constant of the ET oxidation in the liver compartment [12]: 0.0005 mmol/L | VmaxEO (maximum EO formation rate) ([13]; liver microsomes pooled from 10 rats, 37°C, mean ± SE): 0.401 nmol/min/mg protein and 0.401 ± 0.013 nmol/min/mg protein | k4 (suicide inactivation rate constant) ([13]; pooled rat liver microsomes, eight ET incubations, mean ± SE): 0.070 ± 0.006 min⁻¹ | k4 (suicide inactivation rate constant) ([14]; lung microsomes pooled from 150 mice, two incubations): 0.306 min⁻¹ and 0.326 min⁻¹

SMILES: CC1CO1 (centres unmarked) [PO, propylene oxide]
hepatic microsomal elimination clearance [16]: 4.4 μl/min/mg protein | half-life of nonenzymatic GSH conjugation [17]: 1.7 h | half-life of the noncatalyzed aqueous hydrolysis [18]: 88 h | hepatic microsomal elimination clearance [19]: 9.9 μl/min/mg protein

SMILES: C=Cc1ccccc1 [Styrene, styrene]
partition ratio k3/k4 [20]: 10,000
